Among the data in ChEMBL document CHEMBL1134426, “Derivatives of 17-(2-methylallyl)-substituted noroxymorphone: variation of the delta address and its effects on affinity and selectivity for the delta opioid receptor” (Bioorg Med Chem Lett, 2001) are Ki and Selectivity ratio values, retold here.

One assay has as its target Mu-type opioid receptor (Homo sapiens, UniProt P35372). The assay can be described thus: Displacement of [3H]DAMGO from Opioid receptor mu 1.
Assay [1] deals with Opioid receptors; mu & delta (Homo sapiens) (UniProt P41143+P35372). The assay can be described thus: Selectivity ratio for mu and delta opioid receptor binding. The class given is protein assay.
Assay [2] concerns the target Kappa-type opioid receptor (Homo sapiens, UniProt P41145). Nature of the assay: Displacement of [3H]U-69593 from Opioid receptor kappa 1.
The target of assay [3] is Delta-type opioid receptor (Homo sapiens, UniProt P41143). The assay can be described thus: Displacement of [3H]DADLE from Opioid receptor delta 1.
The target of assay [4] is Opioid receptors; delta & kappa (Homo sapiens) (UniProt P41145+P41143). The assay can be described thus: Selectivity ratio for kappa and delta opioid receptor binding. Format: protein assay.

Bounds are passed on as bounds.

Sequence of Opioid receptors; mu & delta (Homo sapiens) (P35372 whole entry, looked up): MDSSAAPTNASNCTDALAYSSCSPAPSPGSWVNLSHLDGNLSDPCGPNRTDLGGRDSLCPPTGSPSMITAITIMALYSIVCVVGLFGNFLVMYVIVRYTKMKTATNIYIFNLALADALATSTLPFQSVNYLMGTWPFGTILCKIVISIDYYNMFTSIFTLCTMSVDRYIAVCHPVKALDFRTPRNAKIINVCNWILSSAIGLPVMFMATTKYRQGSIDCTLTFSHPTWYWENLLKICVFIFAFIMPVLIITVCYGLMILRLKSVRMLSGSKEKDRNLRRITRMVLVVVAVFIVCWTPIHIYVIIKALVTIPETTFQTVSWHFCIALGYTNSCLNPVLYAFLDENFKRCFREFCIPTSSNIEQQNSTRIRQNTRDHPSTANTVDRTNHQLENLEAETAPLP
Sequence of Opioid receptors; mu & delta (Homo sapiens) (P41143 whole entry, looked up): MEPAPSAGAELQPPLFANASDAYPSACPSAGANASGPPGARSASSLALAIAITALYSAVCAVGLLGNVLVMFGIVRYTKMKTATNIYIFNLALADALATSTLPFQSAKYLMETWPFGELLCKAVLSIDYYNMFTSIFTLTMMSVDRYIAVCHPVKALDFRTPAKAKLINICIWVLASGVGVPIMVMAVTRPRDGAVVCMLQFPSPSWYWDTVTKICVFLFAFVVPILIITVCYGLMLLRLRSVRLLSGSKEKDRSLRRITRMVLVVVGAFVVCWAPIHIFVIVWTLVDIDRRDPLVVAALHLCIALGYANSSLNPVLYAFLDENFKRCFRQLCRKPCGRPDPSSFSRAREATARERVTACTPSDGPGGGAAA
Sequence of Mu-type opioid receptor (P35372 whole entry): as the sequence (P35372 whole entry, looked up) above
Sequence of Kappa-type opioid receptor (P41145 whole entry): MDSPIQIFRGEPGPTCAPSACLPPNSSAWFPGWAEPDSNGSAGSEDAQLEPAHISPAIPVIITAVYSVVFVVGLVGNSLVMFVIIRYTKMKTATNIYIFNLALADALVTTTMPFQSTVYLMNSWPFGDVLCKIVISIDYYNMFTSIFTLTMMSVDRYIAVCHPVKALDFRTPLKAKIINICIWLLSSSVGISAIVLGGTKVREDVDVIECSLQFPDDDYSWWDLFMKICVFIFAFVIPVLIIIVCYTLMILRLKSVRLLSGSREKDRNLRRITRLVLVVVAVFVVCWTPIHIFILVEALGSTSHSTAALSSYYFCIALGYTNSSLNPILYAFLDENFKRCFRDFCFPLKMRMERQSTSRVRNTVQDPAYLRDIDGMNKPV
Sequence of Opioid receptors; delta & kappa (Homo sapiens) (P41143 whole entry, looked up): as the sequence (P41143 whole entry, looked up) above
Sequence of Opioid receptors; delta & kappa (Homo sapiens) (P41145 whole entry, looked up): as the sequence (P41145 whole entry) above
Sequence of Delta-type opioid receptor (P41143 whole entry): as the sequence (P41143 whole entry, looked up) above

Take `C=C(C)CN1CCC23c4c5ccc(O)c4O[C@H]2c2ncc(-c4ccc(Cl)cc4)cc2C[C@@]3(O)C1C5` (stereo partly drawn): the Ki was greater than 6000 nM at Mu-type opioid receptor, 300 nM in assay [2] and 16 nM in assay [3]. In addition, the figures for the Selectivity ratio in assay [1] and in assay [4] were greater than 380 and 19, respectively.

Turning to `C=C(C)CN1CCC23c4c5ccc(O)c4O[C@H]2C(=O)/C(=C/c2ccccc2)C[C@@]3(O)C1C5` (stereo partly drawn), the values for the Ki (at Mu-type opioid receptor; in assay [2]; in assay [3]) were 4500 nM, 4500 nM and 210 nM, respectively. The Selectivity ratio in assay [1] and in assay [4] was 21 in each case.

Turning to `C=C(C)CN1CCC23c4c5ccc(O)c4O[C@H]2c2[nH]ncc2C[C@@]3(O)C1C5` (stereo partly drawn), the Ki on Mu-type opioid receptor came out at 140 nM; in assay [2], 38 nM; in assay [3], 40 nM.

As to `C=C(C)CN1CCC23c4c5ccc(OC)c4O[C@H]2C(=O)/C(=C/c2ccccc2)C[C@@]3(O)C1C5` (stereo partly drawn), the results for the inhibitory constant (Ki) (on Mu-type opioid receptor; in assay [2]; in assay [3]) were greater than 6000 nM, greater than 7000 nM and 3400 nM, respectively. Also, the Selectivity ratio was greater than 1 in assay [1] and greater than 2 in assay [4].

For `C=C(C)CN1CCC23c4c5ccc(O)c4O[C@H]2c2n[nH]cc2C[C@@]3(O)C1C5` (stereo partly drawn), the Selectivity ratio in assay [1] was 4; in assay [4], 1.

`C=C(C)CN1CCC23c4c5ccc(OC)c4O[C@H]2c2[nH]c4ccccc4c2C[C@@]3(O)C1C5` (stereo partly drawn): the Ki on Mu-type opioid receptor was greater than 6000 nM; in assay [2], greater than 14000 nM; in assay [3], 500 nM. For the same compound, the values for the Selectivity ratio in assay [1] and in assay [4] were greater than 12 and greater than 28, respectively.

Consider `C=C(C)CN1CCC23c4c5ccc(OC)c4O[C@H]2c2n[nH]cc2C[C@@]3(O)C1C5` (stereo partly drawn), for which the figures for the Selectivity ratio in assay [1] and in assay [4] were greater than 2 and 1, respectively.

Take `C=C(C)CN1CCC23c4c5ccc(O)c4O[C@H]2C(=O)C2(Cc4ccccc4C2)C[C@@]3(O)C1C5` (stereo partly drawn): the values for the Ki (on Mu-type opioid receptor; in assay [2]; in assay [3]) were 2000 nM, 1000 nM and 41 nM, respectively. In addition, the Selectivity ratio in assay [1] worked out at 49; in assay [4], 24.

For the compound `C=C(C)CN1CCC23c4c5ccc(OC)c4O[C@H]2c2oc4ccccc4c2C[C@@]3(O)C1C5` (stereo partly drawn), the Ki is greater than 6000 nM at Mu-type opioid receptor, greater than 10000 nM in assay [2] and 44 nM in assay [3]. Also, the Selectivity ratio turned out to be 140 in assay [1] and 230 in assay [4].

With `C=C(C)CN1CCC23c4c5ccc(OC)c4O[C@H]2c2[nH]ncc2C[C@@]3(O)C1C5` (stereo partly drawn), the Ki at Mu-type opioid receptor is greater than 6000 nM; in assay [2], 3100 nM; in assay [3] it was 2400 nM.

On to `C=C(C)CN1CCC23c4c5ccc(O)c4O[C@H]2c2[nH]c4ccccc4c2C[C@@]3(O)C1C5` (stereo partly drawn), for which the values for the Ki (on Mu-type opioid receptor; in assay [2]; in assay [3]) were 7900 nM, 3800 nM and 4.7 nM, respectively. The figures for the Selectivity ratio in assay [1] and in assay [4] were 1700 and 810, respectively.

For the compound `C=C(C)CN1CCC23c4c5ccc(OC)c4O[C@H]2c2ncc(-c4ccc(Cl)cc4)cc2C[C@@]3(O)C1C5` (stereo partly drawn), the Ki is greater than 6000 nM at Mu-type opioid receptor, 3200 nM in assay [2] and 260 nM in assay [3]. The Selectivity ratio is 23 in assay [1] and 12 in assay [4].

As for `C=C(C)CN1CCC23c4c5ccc(OC)c4O[C@H]2C(=O)C2(Cc4ccccc4C2)C[C@@]3(O)C1C5` (stereo partly drawn), the Ki was greater than 6000 nM on Mu-type opioid receptor, greater than 7000 nM in assay [2] and greater than 7200 nM in assay [3].

As to `C=C(C)CN1CCC23c4c5ccc(O)c4O[C@H]2c2oc4ccccc4c2C[C@@]3(O)C1C5` (stereo partly drawn), the Ki turned out to be 1300 nM on Mu-type opioid receptor, 580 nM in assay [2] and 8.2 nM in assay [3]. Moreover, the figures for the Selectivity ratio in assay [1] and in assay [4] were 160 and 71, respectively.
